This test concerns the target T1, human urotensin-II receptor (UTR cells) (Homo sapiens, UniProt Q9UKP6).
T1 construct: host or cells: 'UTR cells': TE-671 rhabdomyosarcoma cells (endogenous) or CHO cells stably expressing recombinant UTR
T1 sequence (Q9UKP6 1-389): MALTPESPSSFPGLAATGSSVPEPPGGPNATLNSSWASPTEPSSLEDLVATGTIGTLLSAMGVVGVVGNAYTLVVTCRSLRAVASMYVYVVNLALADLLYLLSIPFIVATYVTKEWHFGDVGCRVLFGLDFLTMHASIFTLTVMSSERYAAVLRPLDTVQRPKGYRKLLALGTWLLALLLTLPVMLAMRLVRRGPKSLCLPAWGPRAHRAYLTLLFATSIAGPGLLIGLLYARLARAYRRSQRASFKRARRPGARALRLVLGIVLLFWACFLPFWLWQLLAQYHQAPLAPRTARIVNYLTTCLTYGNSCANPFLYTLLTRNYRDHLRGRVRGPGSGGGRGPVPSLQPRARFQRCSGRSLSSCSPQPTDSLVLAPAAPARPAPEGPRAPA
Briefly: Inhibition of human urotensin-II-induced Ca2+ mobilization in UTR cells. Format: cell-based. To be noted: inhibition of signal induced by 1 nM human U-II, fluo-4AM, FlexStation. The protocol:
1) Inhibition of Human Urotensin-II-Induced Ca^2+ Mobilization in UTR Cells:
The function of urotensin-II was determined by measuring ligand-induced mobilization of intracellular Ca^2+ in a FlexStation scanning fluorometer (Molecular Devices). UTR cells were plated overnight at 50,000 cells/well in 96-well black/clear plates (Costar brand, Fisher 07-200-588). Cells were labeled with fluo-4AM dye (Molecular Probes, F-14201) in Hank's balanced salt solution (HBSS), 20 mM HEPES, 25 mM probenecid, pH 7.4, and then were washed with buffer. During the assay, cells were continuously monitored in the FlexStation and exposed to test compounds at a final concentration of 0.1% DMSO, followed by the addition of 1 nM human U-II. Fluorescence was read every 2 seconds for 2 minutes. The excitation and emission wavelengths used were 485 nm and 525 nm. Inhibition of the urotensin-II-induced signal was calculated using a nonlinear least square fitting program.

By IC50 is commonly meant the concentration needed to halve the response being measured. For the molecule `CN(C)CCOc1cc(Nc2ccnc3cc(C(F)(F)F)ccc23)ccc1Cl` [Example 7, (4-chloro-3-(2-dimethylamino-ethoxy)-phenyl)-(7-trifluoromethyl-quinolin-4-yl)-amine], the IC50 came to 6.5 µM.

For the origin of these results see patent US7320989B2, “Pyridine, pyrimidine, quinoline, quinazoline, and naphthalene urotensin-II receptor antagonists” (Encysive Pharmaceuticals, Inc., priority 2003, dated 2008).
